From ChEMBL document CHEMBL3792335, “L-Aspartic and l-glutamic acid ester-based ProTides of anticancer nucleosides: Synthesis and antitumoral evaluation” (Bioorg Med Chem Lett, 2016)

Columns and labels:
Jurkat = assay: Cytotoxicity against human Jurkat cells assessed as reduction in cell viability after 72 hrs by MTS assay; type: functional, cell-based
A549 = assay: Cytotoxicity against human A549 cells assessed as reduction in cell viability after 72 hrs by MTS assay; type: functional, cell-based; conditions: A549, 72 h
[1] = Cytotoxicity against human PC3 cells assessed as reduction in cell viability after 72 hrs by MTS assay; type: functional, cell-based; conditions: PC-3, 72 h
Ramos = assay: Cytotoxicity against human Ramos cells assessed as reduction in cell viability after 72 hrs by MTS assay; type: functional, cell-based
[2] = Cytotoxicity against human U87 cells assessed as reduction in cell viability after 72 hrs by MTS assay; type: functional, cell-based, U-87MG ATCC; conditions: U-87 MG

SMILES	EC50 (Jurkat)	EC50 (A549)	EC50 [1]	EC50 (Ramos)	EC50 [2]
CCOC(=O)CC[C@H](NP(=O)(OC[C@H]1O[C@@H](n2ccc(N)nc2=O)C(F)(F)[C@@H]1O)Oc1ccccc1)C(=O)OCC (stereo not given in full)	0.129 µM	> 100 µM	2.3 µM	365 nM	> 100 µM
CC(C)CCOC(=O)CC[C@H](NP(=O)(OC[C@H]1O[C@@H](n2ccc(N)nc2=O)C(F)(F)[C@@H]1O)Oc1ccccc1)C(=O)OCCC(C)C (stereo not given in full)	1.2 µM	> 100 µM	10.9 µM	1200 nM	> 100 µM
CC(C)CCOC(=O)C[C@H](NP(=O)(OC[C@H]1O[C@@H](n2cc(F)c(=O)[nH]c2=O)C[C@@H]1O)Oc1ccccc1)C(=O)OCCC(C)C (stereo not given in full)	1.1 µM	43.4 µM	22.7 µM	724 nM	10.1 µM
CC(C)CCOC(=O)[C@H](CC(=O)OCc1ccccc1)NP(=O)(OC[C@H]1O[C@@H](n2ccc(N)nc2=O)C(F)(F)[C@@H]1O)Oc1ccccc1 (stereo not given in full)	0.209 µM	> 100 µM	3.8 µM	700 nM	43.7 µM
CC(C)CCOC(=O)C[C@H](NP(=O)(OC[C@H]1O[C@@H](n2ccc(N)nc2=O)C(F)(F)[C@@H]1O)Oc1ccccc1)C(=O)OCc1ccccc1 (stereo not given in full)	0.21 µM	> 100 µM	3.6 µM	813 nM	> 100 µM
CC(C)CCOC(=O)C[C@H](NP(=O)(OC[C@H]1O[C@@H](n2cc(I)c(=O)[nH]c2=O)C[C@@H]1O)Oc1ccccc1)C(=O)OCCC(C)C (stereo not given in full)	14.7 µM	27 µM	33.3 µM	13600 nM	38 µM
CC(C)CCOC(=O)C[C@H](NP(=O)(OC[C@H]1O[C@@H](n2cc(/C=C/Br)c(=O)[nH]c2=O)C[C@@H]1O)Oc1ccccc1)C(=O)OCCC(C)C (stereo not given in full)	5.2 µM	9.9 µM	12.5 µM	6300 nM	12.8 µM
CC(C)CCOC(=O)C[C@H](NP(=O)(OC[C@H]1O[C@@H](n2ccc(N)nc2=O)C(F)(F)[C@@H]1O)Oc1ccccc1)C(=O)OCCC(C)C (stereo not given in full)	0.294 µM	> 100 µM	3.5 µM	294 nM	43.3 µM
O=c1[nH]c(=O)n([C@H]2C[C@H](O)[C@@H](CO)O2)cc1/C=C/Br [BRIVUDINE]	> 100 µM	> 100 µM	> 100 µM	> 100000 nM	> 100 µM
O=c1[nH]c(=O)n([C@H]2C[C@H](O)[C@@H](CO)O2)cc1F [FLOXURIDINE]	0.00333 µM	60.8 µM	86.9 µM	7.51 nM	18.2 µM
Nc1ccn([C@@H]2O[C@H](CO)[C@@H](O)C2(F)F)c(=O)n1 [GEMCITABINE]	0.023 µM	> 100 µM	0.065 µM	0.03 nM	> 100 µM
O=c1[nH]c(=O)n([C@H]2C[C@H](O)[C@@H](CO)O2)cc1I [IDOXURIDINE]	79.7 µM	> 100 µM	> 100 µM	47900 nM	> 100 µM
